Measured values as given in patent publication US11046753B2, “Antibody composition and buffer system therefor” (INNOVA BIOSCIENCES LTD, priority 2013, dated 2021).
“Also recorded” adds a separate entry of the source.

Assays:
[1] = Carbodiimide (EDC)-mediated conjugation of goat anti-rabbit IgG to carboxylated gold nanoparticles in presence of additive, read by lateral flow assay
Description: Molecules were tested initially at pH 5 in EDC-mediated reactions with carboxylated gold particles (InnovaCoat GOLD, Innova Biosciences). Potentially interesting molecules from this screening exercise were further evaluated in NHS ester reactions, isothiocyanate reactions and thiolation reactions involving iminothiolane. All of these reactions are widely used in the antibody conjugation field and all would be expected to suffer from interference in the presence of glycine.
Lateral flow test strips (4 mm wide) were prepared from nitrocellulose membrane (Millipore Hi Flow plus 90) striped with goat anti-rabbit IgG (test line) and biotin-BSA (control line). Strips were housed in plastic cartridges and samples of gold conjugate (80 ul) were added to the sample pad. Cartridges were allowed to stand for 30 min and then read using a ESE-Quant GOLD reader—QIAGEN. Each sample was spiked with a fixed amount of streptavidin-gold (Innova biosciences—Product code: 250-0200), which binds to the control line, to check that each test strip had run correctly and that test line data was valid.
10 μg of goat anti-rabbit IgG (GAR) was used per ml of coated 40 nm nanoparticles with carboxyl functionality (InnovaCoat GOLD, Innova Biosciences) at […] in the presence of additives at 50 mM final concentration. Typically reactions were set up with the following additions: 40 μl of 40 nm InnovaCoat (carboxylated) gold nanopartcles, were incubated 5 minutes with 4 μl 0.1 mg/ml GAR, 20 μl water, and 80 μl of 100 mM MES buffer containing 100 mM of additive, pH 5.0. Next, 16 μl of 1 mM EDC was added and after 10 min incubation at 22° C., 20 μl of 10×TBS/1% Tween20 and 20 μl of water was added to give 2 OD conjugate.
Gold conjugates were mixed when required with rabbit IgG ((final concentration 50 ng/ml) at 22° C. Conjugates were 0.2 OD final concentration (i.e. 1/10 dilution from stock conjugates). Samples were run in triplicate on lateral flow test strips as described in Example 1.

[2] = Lightning-Link fluorescein conjugation of goat anti-rabbit IgG in presence of additive, fluorescence assay; conditions: 50 mM additive; for % of control: conjugate 1/100 dilution, additive-free control 100%
Description: (§1) Black 96-well plates (Greiner Bio-One (code 655077)) were incubated with 50 ul rabbit IgG (1 ug/well) overnight at 4° C. The plates were blocked with TBS/0.1% BSA for 1 hour at room temperature and washed five times with TBS (wash buffer). Fluorescent antibody conjugates were serially diluted in TBS/0.1% BSA and 50 ul aliquots were added to wells in triplicate. After incubation at room temperature for 1 hour, the plate was washed five times and fluorescence emission was read in using a Tecan Infinite M200 plate reader with i-Control 1.4 software with the appropriate excitation/emission settings (fluorescein, 490 nm/535 nm; phycoeythrin, 535 nm/575 nm. Fluorescence data was plotted as a function of conjugate dilution. To compare results for additives tested in different experiments the data were transformed into a percentage of a control value (i.e. the signal for conjugate prepared in the absence of any test additive).
Reactions were carried out according to the manufacturer's standard protocol except that the additives were included at up to 50 mM concentration in conjugation reactions of Goat-anti-rabbit IgG using fluorescein Lightning-Link kit (product code 707-0010, Innova Biosciences, UK). Conjugates were tested according to the protocol described in Example 2.

[3] = 25° C., cited from earlier work; for pKa (COOH): Table 1; for pKa of buffer: neutralisation / catch / wash buffers
[4] = Degree of ionisation of the acid group at pH 5 (Henderson-Hasselbach); type: physicochemical
[5] = Lightning-Link phycoerythrin conjugation of goat anti-rabbit IgG in presence of tricine, fluorescence assay
Description: as §1
The method was as described in Example 4, except that the Goat anti-rabbit IgG was conjugated to the fluorescent protein phycoerythrin (PE) using a Lightning-Link PE conjugation kit (703-0005). Tricine has little effect on Lightning-Link PE conjugation reactions in the range of concentrations tested. In this case the conjugate prepared at the highest concentration of tricine (50 mM) gave a signal that was 91% of control value in the absence of additive.

[6] = Effect of additives on the thiolation reagent 2-iminothiolane (thiol release, DTNB, A405); conditions: 50 mM additive, pH 8.0, 30 minutes
Description: 20 μl of 2 mM 2-iminothiolane was added to each well and mixed quickly and the absorbance values were read at 405 nm every minute for 30 minutes using a Tecan Infinite M200 plate reader with i-Control 1.4 software. […] In control reaction, there is a steady linear increase in absorbance as the reagent is hydrolysed by water. […] The rising baseline can be attributed to the known sensitivity of 2-iminothiolane to hydrolysis at alkaline pH values.

[7] = additive 50 mM final, MES pH 5.0, EDC, lateral flow test line signal

Compound | % of Signal [1, 7] | interference in carbodiimide-mediated antibody-gold nanoparticle conjugation reaction ([1]; pH 5, EDC) | pKa (COOH) [3] | further results
C[C@H](N)C(=O)O [Alanine] | 100% | little or no effect |  | 
O=C(O)[C@@H]1CCCN1 [Proline] | 94% | little or no effect |  | interference in Lightning-Link fluorescein conjugation reaction [2]: significant interference; % of control [2]: 53%
CN(C)CC(=O)O [N,N- Dimethylglycine, N,N-dimethylglycine] | 110% | little or no effect | pKa1 = 2.06 | interference in Lightning-Link fluorescein conjugation reaction [2]: little or no effect; % of control [2]: 96%
O=C(O)c1cccnc1 [Nicotinic Acid] | 73% | significant interference; also recorded: partial interference | pKa1 = 2.201 | pKa of the carboxyl (acid) group [3]: 2.2
CC(=O)O [acetic acid] |  | greater interference in carbodiimide reactions than glycine |  | 
[N-]=[N+]=[N-].[Na+] [0.01% NaN3, sodium azide] | 26% | caused interference | pKa1 = 4.8 | 
NCCC(=O)O [Beta-Alanine] | 92% | little or no effect | pKa = 3.6 | 
NC(CO)(CO)CO [Tris] | 19% | severe interference | pKa1 = 8.07 | 
Phosphate |  | caused interference |  | 
O=S(=O)(O)CCN1CCN(CCS(=O)(=O)O)CC1 [PIPES, piperazine-N,N′-bis(2-ethanesulfonic acid)] |  |  |  | pKa of buffer [3]: 6.76
NCCCC(=O)O [GABA (Υ-Aminobutyric Acid), gamma-amino butyric acid] | 26% | significant interference; also recorded: significantly inhibits | pKa1 = 4.23 | acid groups ionised (COO−) [4]: 85.5%
O=C(O)CCC(=O)O [Succinic Acid] | 0% | severe interference |  | 
CCC(N)C(=O)O (racemic) [DL-2 Aminobutyric Acid] | 101% |  | pKa = 2.29 | interference in carbodiimide-mediated antibody-gold nanoparticle conjugation reaction ([1]; pH 5, EDC, listed as DL-2-aminobutyric acid): little or no effect; interference in carbodiimide-mediated antibody-gold nanoparticle conjugation reaction ([1]; pH 5, EDC, listed as DL-2 amino butyric acid): no interference; pKa of the carboxyl (acid) group [3]: 2.29
O=C(O)c1c(O)cc(O)cc1O [2,4,6-Trihydroxy-benzoic Acid, 2,4,6-trihydroxybenzoic acid] | 0% | severe interference | pKa1 = 1.68 | 
O=C(O)CNC(CO)(CO)CO [Tricine, N-tris(hydroxymethyl)methylglycine] | 105% | little or no effect | pKa1 = 2.3 | % of control ([5]; 50 mM tricine): 91%; interference in Lightning-Link phycoerythrin conjugation reaction ([5]; up to 50 mM): little effect; also recorded: modest degree of interference; pKa of the carboxyl (acid) group [3]: ~2.3
C[N+](C)(C)CC(=O)[O-] [Glycine betaine, N,N,N-trimethylglycine] | 96% | little or no effect | pKa = 1.83 | interference in Lightning-Link fluorescein conjugation reaction [2]: little or no effect; % of control [2]: 98%; release of thiols from 2-iminothiolane versus control ([6]; listed as betaine): no increase in this rate; release of thiols from 2-iminothiolane versus control ([6]; listed as glycine betaine): without effect; pKa of the carboxyl (acid) group [3]: 1.8
O=C(O)C(Cl)(Cl)Cl [TCA, trichloroacetic acid] | 0% | severe interference |  | acid groups ionised (COO−) [4]: essentially fully ionised
Citric Acid | 0% | severe interference |  | release of thiols from 2-iminothiolane versus control ([6]; listed as Citric acid): no effect; release of thiols from 2-iminothiolane versus control ([6]; listed as citric acid): no increase in this rate
CNCC(=O)O [N-Methylglycine (Sarcosine), N-methylglycine] | 93% | little or no effect | pKa1 = 2.36 | 
O=C(O)c1ccccn1 [2-Picolinic Acid, 2-pyridinecarboxylic acid] | 100% |  | pKa1 = 5.52 | interference in carbodiimide-mediated antibody-gold nanoparticle conjugation reaction ([1]; pH 5, EDC, listed as 2-picolinic acid): little or no effect; interference in carbodiimide-mediated antibody-gold nanoparticle conjugation reaction ([1]; pH 5, EDC, listed as picolinic acid): without effect; interference in Lightning-Link fluorescein conjugation reaction [2]: modest interference; % of control [2]: 83%; pKa of the amine group [3]: 5.52
CC(=O)[O-].[Na+] [Na Acetate, sodium acetate] |  |  |  | % of Signal ([1]; pH 5): 37%; interference in carbodiimide-mediated antibody-gold nanoparticle conjugation reaction ([1]; pH 5): significant interference but not totally abolishing the conjugation reaction
O=C(O)C1CCCCC1 [Cyclohexane-carboxylic acid, cyclohexane carboxylic acid] | 71% | significant interference but not totally abolishing the conjugation reaction |  | 
CC(C)(C)C(=O)O [Pivalic Acid] | 53% | significant interference but not totally abolishing the conjugation reaction; also recorded: partial inhibition |  | acid groups ionised (COO−) [4]: ~50%
O=S(=O)(O)CCCCN1CCN(CCO)CC1 [HEPBS, N-(2-Hydroxyethyl)piperazine-N′-(4-butanesulfonic acid)] |  |  |  | pKa of buffer [3]: 8.3
